{"source": "paper PMC11987006", "about": "(iScience, 2025)", "key": {"[1]": {"test_system": "WT N2 animal", "assay": "salt chemotaxis with tyramine/octopamine, WT N2", "assay_type": "in vivo, C. elegans", "conditions": "10 μM TA or OA or both in conditioning solutions or test plate agar"}, "[2]": {"test_system": "WT N2 animal", "assay": "salt chemotaxis learning with tyramine/octopamine, WT N2", "assay_type": "in vivo, C. elegans", "conditions": "10 μM TA or OA or both in conditioning solutions or test plate agar"}}, "data": [{"smiles": "NCC(O)c1ccc(O)cc1", "note": "(stereo not shown) [OA, octopamine]", "values": [{"measurement": "effect on salt chemotaxis", "setting": "[1]", "value": "no obvious impact"}, {"measurement": "effect on SCL (learning index)", "setting": "[2]", "value": "no obvious impact"}]}, {"smiles": "NCCc1ccc(O)cc1", "note": "[TA, tyramine]", "values": [{"measurement": "effect on salt chemotaxis", "setting": "[1]", "value": "no obvious impact"}, {"measurement": "effect on SCL (learning index)", "setting": "[2]", "value": "no obvious impact"}]}]}
